Where only a bound is given, the exact number is not on record here.

The target in the first experiment is T1, human GPR84 receptor (Homo sapiens, UniProt Q9NQS5).
T1 construct: host or cells: HEK293, transient transfection
T1 sequence (Q9NQS5 whole entry): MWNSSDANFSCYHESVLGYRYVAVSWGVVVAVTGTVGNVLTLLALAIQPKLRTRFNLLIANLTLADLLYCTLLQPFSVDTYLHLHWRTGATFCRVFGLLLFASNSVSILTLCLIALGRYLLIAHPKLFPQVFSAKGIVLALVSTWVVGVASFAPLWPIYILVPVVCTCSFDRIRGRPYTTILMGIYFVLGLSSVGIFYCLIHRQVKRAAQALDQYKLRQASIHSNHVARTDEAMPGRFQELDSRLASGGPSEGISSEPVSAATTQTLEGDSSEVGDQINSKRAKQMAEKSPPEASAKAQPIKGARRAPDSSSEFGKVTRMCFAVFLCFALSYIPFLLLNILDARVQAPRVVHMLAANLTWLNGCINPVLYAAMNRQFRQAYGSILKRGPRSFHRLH
As to the kind of experiment: Gαi biosensor BRET assay in HEK293 cells (antagonism of ZQ-16). The class given is cell-based. To be noted: HEK293, single concentration 2 μM (designated A). The method in brief:
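Antagonist mode: test compound 5 min at 37° C, followed by ZQ-16 agonist (200 nmol/L, 5 min, room temperature), in HEK293 cells transfected with GPR84 plus Rluc8-tagged Gαi2, GFP10-Gγ2 and Gβ1. Readout as GFP10/Rluc8 emission ratio after 5 μmol/L coelenterazine 400A, net of Rluc8-only and vehicle signal.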
For orientation: In BRET a luciferase serves as donor, and the signal depends on an acceptor being close.
For orientation: inhibition means the drop in the measured response relative to a control, in per cent. The compound `Clc1cc(C#CC2CC2)cnc1-c1cn(CC2OCC3(CCC3)O2)nn1` (centres unmarked) [Compound I-806] registered an inhibition at 2 µM greater than 75%.

`CC(C)Oc1cc(N2CC(C)(CO)C2)cnc1-c1cn(CC2OCC3(CCC3)O2)nn1` (centres unmarked) [Compound I-809]: the inhibition at 2 µM was greater than 75%. Consider `CCc1cc(C#CCN(C)C)ccc1-c1cn(CC2OCC(C)(C)CO2)nn1` [Compound I-852], for which the inhibition at 2 µM is greater than 75%. Compound `Cc1cc(C#CC2CC2)ccc1-c1cn(CC23CC(C)(CO2)C3)nn1` [Compound I-556] came in with an inhibition at 2 µM of no more than 25%. Compound `CCc1ccc(C#CC2CC2)cc1Cc1cn(CC2CCCCO2)nn1` (centres unmarked) [Compound I-475] registered an inhibition at 2 µM of 25 to 50%. Regarding `CN(C)c1cc(N2CC(C)(CO)C2)c(F)cc1-c1cn(CC2OCC(C)(C)CO2)nn1` [Compound I-711], the inhibition at 2 µM is greater than 75%.

Still in this experiment, the particulars now being: HEK293, single concentration 5 μM (designated D).
For `Cc1c(-c2ccc(OCc3ccccc3)cc2)nnn1CC1CCCCO1` (centres unmarked) [Compound I-46], the inhibition at 5 µM was no more than 25%.

The experiment is the same for the next values; noted with them: HEK293, single concentration 10 μM (designated F).
`Cc1ccc(C#CC2CC2)cc1Cc1nnnn1CC1CCCCO1` (centres unmarked) [Compound I-419] displayed an inhibition at 10 µM of 25 to 50%. In turn, `Cc1cc(C#CC2CC(F)(F)C2)ccc1-c1cn(CC2OCC(C)(C)CO2)nn1` [Compound I-662] displayed an inhibition at 10 µM greater than 75%. As to `Cc1cc(C#CC2CC2)cnc1-c1cn(CC2OCC(c3ccccc3)CO2)nn1` (centres unmarked) [Compound I-705], the inhibition at 10 µM was no more than 25%. On the same count and under the same terms, as for `Cc1noc(COc2ccc(-c3cn(CC4CCCCO4)nn3)c(C)c2)n1` (centres unmarked) [Compound I-469], the figure is no more than 25%; as for `CC1(C)COC(Cn2cc(-c3c(Cl)cc(C#CC4CC4)c[n+]3[O-])nn2)OC1` [Compound I-817], greater than 75%. `Cc1cc(N2CC(C)(CNS(C)(=O)=O)C2)ccc1-c1cn(CC2CCCCO2)nn1` (centres unmarked) [Compound I-448] registered an inhibition at 10 µM of 50 to 75%. For `COC(c1cn(CC2OCC(F)(F)CO2)nn1)c1cc(C#CC2CC2)c(F)cc1C` (centres unmarked) [Compound I-723], the inhibition at 10 µM was greater than 75%. Consider `COC(C)Cn1cc(-c2ccc(C#CC3CC3)cc2C)nn1` (centres unmarked) [Compound I-132], for which the inhibition at 10 µM was 25 to 50%. Regarding `COCCn1cc(-c2ccc(C#CCNc3ccccc3)cc2C)nn1` [Compound I-161], the inhibition at 10 µM is no more than 25%.

Compound `Cc1cc(C#CCN2CC(C)(C)C2)cnc1-c1cn(CC2Oc3ccccc3O2)nn1` [Compound I-627] returned an inhibition at 10 µM greater than 75%. Same read-out and setting: as for `C(#CC1CC1)c1ccc(-c2cn(CC3CCCCO3)nn2)c(N2CCC2)c1` (centres unmarked) [Compound I-199], the figure is no more than 25%; as for `Cc1cc(OC2CN3CCC2CC3)ccc1-c1cn(CC2CCCCO2)nn1` (centres unmarked) [Compound I-465], no more than 25%.

`Cc1cc(C#CC2CC2)ccc1-c1cn(CC2CCCC(=O)N2)nn1` (centres unmarked) [Compound I-516] displayed an inhibition at 10 µM of no more than 25%. On the same count and under the same terms, as for `Cc1cc(N2CC(C)(CN(C)c3ccccn3)C2)ccc1-c1cn(CC2CCCCO2)nn1` (centres unmarked) [Compound I-675], the figure is greater than 75%; as for `CC1(C)COC(Cn2cc(-c3ccc(C#CCN4CC(C)(C)C4)cc3OC3CC3)nn2)OC1` [Compound I-788], greater than 75%; as for `Cc1cc(N2CC3(CCCN3C)C2)ccc1-c1cn(CC2CCCCO2)nn1` (centres unmarked) [Compound I-148], 50 to 75%. `CC(C)OCC1(C)CN(c2ccc(-c3cn(CC4OCC(C)(C)CO4)nn3)c(N(C)C)c2)C1` [Compound I-754]: the inhibition at 10 µM is greater than 75%. Turning to `Cc1cc(C#CCn2cc(C3CC3)nn2)cnc1-c1cn(CC2CCCCO2)nn1` (centres unmarked) [Compound I-732], the inhibition at 10 µM is no more than 25%. The compound `Cc1cc(C#CC2CC2)ccc1-c1ccn(CC2CCCCO2)n1` (centres unmarked) [Compound I-325] showed an inhibition at 10 µM of no more than 25%. The same measure, in the same setting: as for `Cc1cc(C#CCNc2ccccc2)ccc1-c1cn(CCOc2cccnc2)nn1` [Compound I-136], the figure is no more than 25%. As to `CC(C)Oc1cc(C#CC2CC2)cnc1-c1cn(CC2OCC3(CCC3)O2)nn1` (centres unmarked) [Compound I-797], the inhibition at 10 µM was greater than 75%. The compound `Cc1cccc(C#Cc2cn(CC3OCC(C)(C)CO3)nn2)c1` [Compound I-790, 1-((5,5-dimethyl-1,3-dioxan-2-yl)methyl)-4-(m-tolylethynyl)-1H-1,2,3-triazole] displayed an inhibition at 10 µM of no more than 25%. Still for that read-out and setting: as for `CC(c1cn(CC2CCCCO2)nn1)c1cccc(C#CC2CC2)n1` (centres unmarked) [Compound I-416], the figure is 25 to 50%; as for `Cc1cc(N2CC(C)(N(C)C)C2)ccc1-c1cn(CC2CCCCO2)nn1` (centres unmarked) [Compound I-470], no more than 25%. In turn, `COc1ccc(-c2cn(CC3CCCCO3)nn2)c(C)c1` (centres unmarked) [Compound I-412] had an inhibition at 10 µM of no more than 25%. Compound `Cc1cc(C(=O)Nc2cc[nH]n2)ccc1-c1cn(CC2CCCCO2)nn1` (centres unmarked) [Compound I-559] showed an inhibition at 10 µM of no more than 25%.

Compound `Cc1cc(N2CCN(Cc3ccncc3)CC2)ccc1-c1cn(CC2CCCCO2)nn1` (centres unmarked) [Compound I-549] had an inhibition at 10 µM of 50 to 75%. On the same count and under the same terms, as for `COc1ccc(C)c(N(C)c2cn(CC3OCC(C)(C)CO3)nn2)c1` [Compound I-814], the figure is no more than 25%; as for `COc1cc(C)c(-c2cn(CC3CCCCO3)nn2)cc1OC` (centres unmarked) [Compound I-257], no more than 25%; as for `Cc1cc(N2CC3(CCCN3c3ccccn3)C2)ccc1-c1cn(CC2CCCCO2)nn1` (centres unmarked) [Compound I-623], 50 to 75%. The compound `CC(C)(O)c1cc(C#CC2CC2)ccc1-c1cn(CC2CCCCO2)nn1` (centres unmarked) [Compound I-229] registered an inhibition at 10 µM of no more than 25%.

`COC(=O)NCC#Cc1ccc(-c2cn(CC3CCCCO3)nn2)c(C)c1` (centres unmarked) [Compound I-607]: the inhibition at 10 µM was in the range of 25 to 50%. For the compound `COC1CN(c2ccc(-c3cn(CC4CCCCO4)nn3)c(C)c2)C1` (centres unmarked) [Compound I-507], the inhibition at 10 µM is 25 to 50%. The same measure, in the same setting: as for `CN(C)c1cc(N2CC(CO)(CO)C2)ccc1-c1cn(CC2OCC(C)(C)CO2)nn1` [Compound I-667], the figure is greater than 75%; as for `Cc1c(-c2ccc(C#CCO)cc2)nnn1CC1CCCCO1` (centres unmarked) [Compound I-243], 25 to 50%.

Staying with this experiment, now noted: HEK293, single concentration 25 μM (designated I).
Turning to `Cc1c(-c2cccc(C#CC3CC3)c2)cnn1CC1CCCCO1` (centres unmarked) [Compound I-322], the inhibition at 25 µM is no more than 25%. On the same count and under the same terms, as for `Cc1cc(C#CC2CC2)ccc1-c1cn(CCOCC2CCCCO2)nn1` (centres unmarked) [Compound I-85], the figure is 25 to 50%. Compound `Cc1ccc(-c2ccc(-c3cn(CC4CCCCO4)nn3)c(C)c2)cn1` (centres unmarked) [Compound I-36] registered an inhibition at 25 µM of 25 to 50%. The same measure, in the same setting: as for `CN(C)CC#Cc1ccc(-c2cn(CC3CCCCO3)nn2)cc1` (centres unmarked) [Compound I-47], the figure is no more than 25%. `CC(C)C#Cc1ccc(-c2cn(CC3CCCCO3)nn2)cc1` (centres unmarked) [Compound I-57]: the inhibition at 25 µM is no more than 25%. Same read-out and setting: as for `Cc1cc(CN2CCOCC2)ccc1-c1cn(CC2CCCCO2)nn1` (centres unmarked) [Compound I-74], the figure is 25 to 50%.

The experiment is the same for the next values; noted with them: HEK293 cells, antagonism of 200 nmol/L ZQ-16.
In general, IC50 refers to the concentration that gives 50% inhibition. A higher IC50 goes with a need for much substance. In turn, `Cc1cc(C#CC2CC2)ccc1-c1cn(CC2OCCCO2)nn1` [Compound I-91] yielded an IC50 of 1000 to 3000 nM.

The compound `Cc1cc(C#CC2CC(F)(F)C2)ccc1-c1cn(CC2OCC(C)(C)CO2)nn1` [Compound I-662] came in with an IC50 greater than 3000 nM. The compound `Cc1ccc(-c2ccc(-c3cn(CC4CCCCO4)nn3)c(C)c2)cn1` (centres unmarked) [Compound I-36] returned an IC50 greater than 3000 nM. Same read-out and setting: as for `Cc1cc(C#CCNC(=O)c2ccccc2)ccc1-c1cn(CC2CCCCO2)nn1` (centres unmarked) [Compound I-209], the figure is greater than 2000 nM; as for `CC1(C)COC(Cn2cc(-c3ccc(C#CCN4CC(C)(C)C4)cc3OC3CC3)nn2)OC1` [Compound I-788], no more than 300 nM; as for `CC(C)OCC1(C)CN(c2ccc(-c3cn(CC4OCC(C)(C)CO4)nn3)c(N(C)C)c2)C1` [Compound I-754], 300 to 1000 nM. Compound `CC1(C)COC(Cn2cc(-c3ncc(C#CCN4CC(C)(C)C4)cc3Cl)nn2)OC1` [Compound I-777] registered an IC50 of 1000 to 3000 nM. Still for that read-out and setting: as for `CC(C)Oc1cc(C#CC2CC2)cnc1-c1cn(CC2OCC3(CCC3)O2)nn1` (centres unmarked) [Compound I-797], the figure is no more than 300 nM; as for `Cc1cc(N2CCN(Cc3ccncc3)CC2)ccc1-c1cn(CC2CCCCO2)nn1` (centres unmarked) [Compound I-549], 1000 to 3000 nM; as for `CN(C)c1cc(N2CC(C)(CO)C2)c(F)cc1-c1cn(CC2OCC(C)(C)CO2)nn1` [Compound I-711], no more than 300 nM.

Compound `CN(C)c1cc(N2CC(CO)(CO)C2)ccc1-c1cn(CC2OCC(C)(C)CO2)nn1` [Compound I-667] returned an IC50 of 300 to 1000 nM.
